From patent US20170050957A1, “4-AMINO-6-(HETEROCYCLIC)PICOLINATES AND 6-AMINO-2-(HETEROCYCLIC)PYRIMIDINE-4-CARBOXYLATES AND THEIR USE AS HERBICIDES” (Dow AgroSciences LLC, priority 2013, published 2017)
Where two headings read alike, the source gives them in different places.

Tests used:
[1] = test system: Key Broadleaf Weed and Crop Species; assay: Post-emergent Test II herbicidal activity (Table 15); type: in vivo; details: post-emergence, 336 h, 14 d; for pest or weed control at 35 g/ha: 35 g ai/ha; for pest or weed control at 70 g/ha: 70 g ai/ha; for pest or weed control at 140 g/ha: 140 g ai/ha
Procedure, shortened: (§1)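 Plants at first-second true leaf stage, grown 7-21 d in greenhouse (~15 h photoperiod, 23-29 °C day), were track-sprayed at 187 L/ha with compound in acetone/DMSO/water/isopropanol/crop oil/Triton X-155 at a high rate plus 1/2× to 1/16× dilutions. Injury scored visually after 14 d versus untreated plants, 0 (none) to 100% (complete kill).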

[2] = test system: Key Grass and Sedge Weeds as well as Grass Crops; assay: Post-emergent Test II herbicidal activity (Table 16); type: in vivo; details: post-emergence, 336 h; for pest or weed control at 35 g/ha: 35 g ai/ha; for pest or weed control at 70 g/ha: 70 g ai/ha; for pest or weed control at 140 g/ha: 140 g ai/ha
Procedure, shortened: as §1

[3] = Abutilon theophrasti, velvetleaf (Abutilon theophrasti), read-out: Visual Growth Reduction (%) 14 Days After Application, ABUTH
[4] = Amaranthus retroflexus, redroot pigweed (Amaranthus retroflexus), read-out: Visual Growth Reduction (%) 14 Days After Application, AMARE
[5] = Brassica napus, oilseed rape, canola (Brassica napus), read-out: Visual Growth Reduction (%) 14 Days After Application, BRSNN
[6] = Chenopodium album, lambsquarters (Chenopodium album), read-out: Visual Growth Reduction (%) 14 Days After Application, CHEAL
[7] = Euphorbia heterophylla, wild poinsettia (Euphorbia heterophylla), read-out: Visual Growth Reduction (%) 14 Days After Application, EPHHL
[8] = Helianthus annuus, sunflower (Helianthus annuus), read-out: Visual Growth Reduction (%) 14 Days After Application, HELAN
[9] = Cyperus esculentus, yellow nutsedge (Cyperus esculentus), 14 d, read-out: Visual Growth Reduction (%) 14 Days After Application, CYPES
[10] = Echinochloa crus-galli, barnyardgrass (Echinochloa crus-galli), 14 d, read-out: Visual Growth Reduction (%) 14 Days After Application, ECHCG
[11] = Oryza sativa, rice (Oryza sativa), 14 d, read-out: Visual Growth Reduction (%) 14 Days After Application, ORYSA
[12] = Setaria faberi, giant foxtail (Setaria faberi), 14 d, read-out: Visual Growth Reduction (%) 14 Days After Application, SETFA
[13] = Triticum aestivum, wheat, spring (Triticum aestivum), 14 d, read-out: Visual Growth Reduction (%) 14 Days After Application, TRZAS
[14] = Zea mays, maize, corn (Zea mays), 14 d, read-out: Visual Growth Reduction (%) 14 Days After Application, ZEAMX
[15] = Echinochloa crus-galli, barnyardgrass (Echinochloa crus-galli), 14 days after application, read-out: Visual Growth Reduction (%) 14 Days After Application ECHCG
[16] = Oryza sativa, rice (Oryza sativa), 14 days after application, read-out: Visual Growth Reduction (%) 14 Days After Application ORYSA
[17] = Setaria faberi, giant foxtail (Setaria faberi), 14 days after application, read-out: Visual Growth Reduction (%) 14 Days After Application SETFA
[18] = Triticum aestivum, wheat, spring (Triticum aestivum), 14 days after application, read-out: Visual Growth Reduction (%) 14 Days After Application TRZAS
[19] = Zea mays, maize, corn (Zea mays), 14 days after application, read-out: Visual Growth Reduction (%) 14 Days After Application ZEAMX

COC(=O)c1nc(-c2cc3occc3cc2F)c(F)c(N)c1Cl [Compound 2.10]
45 to 59%: pest or weed control at 140 g/ha [2, 14]
85 to 94%: pest or weed control at 140 g/ha [1, 3] | pest or weed control at 35 g/ha [1, 4] | pest or weed control at 35 g/ha [1, 6] | pest or weed control at 140 g/ha [1, 6] | pest or weed control at 70 g/ha [1, 8] | pest or weed control at 140 g/ha [2, 10]
109 °C: melting point
95 to 100%: pest or weed control at 70 g/ha [1, 4] | pest or weed control at 140 g/ha [1, 4] | pest or weed control at 70 g/ha [1, 6] | pest or weed control at 35 g/ha [1, 7] | pest or weed control at 70 g/ha [1, 7] | pest or weed control at 140 g/ha [1, 7] | pest or weed control at 140 g/ha [1, 8]
30 to 44%: pest or weed control at 35 g/ha [1, 5] | pest or weed control at 140 g/ha [2, 9] | pest or weed control at 70 g/ha [2, 11] | pest or weed control at 140 g/ha [2, 11] | pest or weed control at 70 g/ha [2, 13] | pest or weed control at 70 g/ha [2, 14]
75 to 84%: pest or weed control at 140 g/ha [1, 5] | pest or weed control at 35 g/ha [1, 8] | pest or weed control at 140 g/ha [2, 12]
0 to 29%: pest or weed control at 35 g/ha [2, 9] | pest or weed control at 70 g/ha [2, 9] | pest or weed control at 35 g/ha [2, 11] | pest or weed control at 35 g/ha [2, 13] | pest or weed control at 35 g/ha [2, 14]
60 to 74%: pest or weed control at 35 g/ha [1, 3] | pest or weed control at 70 g/ha [1, 3] | pest or weed control at 70 g/ha [1, 5] | pest or weed control at 35 g/ha [2, 10] | pest or weed control at 70 g/ha [2, 10] | pest or weed control at 35 g/ha [2, 12] | pest or weed control at 70 g/ha [2, 12] | pest or weed control at 140 g/ha [2, 13]

COC(=O)c1nc(-c2ccc3ocnc3c2)c(F)c(N)c1Cl [Compound 5.01]
75 to 84%: pest or weed control at 35 g/ha [1, 4] | pest or weed control at 35 g/ha [2, 15] | pest or weed control at 70 g/ha [2, 15]
60 to 74%: pest or weed control at 35 g/ha [1, 3] | pest or weed control at 70 g/ha [1, 3] | pest or weed control at 140 g/ha [1, 3] | pest or weed control at 35 g/ha [1, 6]
95 to 100%: pest or weed control at 70 g/ha [1, 5] | pest or weed control at 140 g/ha [1, 5] | pest or weed control at 70 g/ha [1, 7] | pest or weed control at 140 g/ha [1, 8]
85 to 94%: pest or weed control at 70 g/ha [1, 4] | pest or weed control at 140 g/ha [1, 4] | pest or weed control at 35 g/ha [1, 5] | pest or weed control at 70 g/ha [1, 6] | pest or weed control at 140 g/ha [1, 6] | pest or weed control at 35 g/ha [1, 8] | pest or weed control at 70 g/ha [1, 8] | pest or weed control at 140 g/ha [2, 15]
0 to 29%: pest or weed control at 35 g/ha [2, 16] | pest or weed control at 70 g/ha [2, 16] | pest or weed control at 140 g/ha [2, 16] | pest or weed control at 35 g/ha [2, 17] | pest or weed control at 70 g/ha [2, 17] | pest or weed control at 140 g/ha [2, 17] | pest or weed control at 35 g/ha [2, 18] | pest or weed control at 70 g/ha [2, 18] | pest or weed control at 140 g/ha [2, 18] | pest or weed control at 35 g/ha [2, 19] | pest or weed control at 70 g/ha [2, 19] | pest or weed control at 140 g/ha [2, 19]
